Assay results taken from US10961234B2, “Oxazole derivatives for use in the treatment of cancer” (LIFEARC, priority 2016, dated 2021).

Assays:
WT full length PAICS = target: T1, WT full length PAICS (Homo sapiens, UniProt P22234); experiment: Biochemical assay to measure PAICS activity (Transcreener ADP2 FI, SAICAR synthetase reaction); conditions: PAICS 2.5 nM, 30 mins pre-incubation, ADP detection by fluorescence intensity
T1 construct: 5 μl WT full length PAICS (final assay concentration, fac, 2.5 nM) in basic buffer
T1 sequence (P22234 1-425): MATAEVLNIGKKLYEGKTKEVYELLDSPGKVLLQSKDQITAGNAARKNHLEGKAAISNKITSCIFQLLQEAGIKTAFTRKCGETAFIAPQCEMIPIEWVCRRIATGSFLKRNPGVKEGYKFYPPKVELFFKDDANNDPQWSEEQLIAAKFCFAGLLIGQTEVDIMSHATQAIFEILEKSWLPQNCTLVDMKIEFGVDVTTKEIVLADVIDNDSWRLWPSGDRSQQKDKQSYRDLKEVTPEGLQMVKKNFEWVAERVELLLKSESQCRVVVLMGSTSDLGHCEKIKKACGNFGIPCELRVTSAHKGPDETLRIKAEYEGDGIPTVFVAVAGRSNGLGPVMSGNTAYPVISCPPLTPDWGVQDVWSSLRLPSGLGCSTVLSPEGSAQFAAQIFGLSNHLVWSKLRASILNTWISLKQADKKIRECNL
In short: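 Enzyme (2.5 nM) pre-incubated 30 min RT with compound (top 1 mM or 30 μM, half-log 10-point, duplicate) in 50 mM Tris-HCl pH8, 0.5 mM EDTA; CAIR (10 μM, ~5 μM after 1 h AIR/CAIR equilibration with MgCl2/KHCO3) then ATP/aspartate (30 μM/180 μM) for 30 min RT. ADP read by Transcreener fluorescence intensity (590/617 nm).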

[1] = test system: wild type LM2 and CRISPR edited LM2; experiment: Cell potency in CRISPR edited (PAICS knock-out) LM2 versus wild type LM2; type: cell-based, human; conditions: CRISPR edited LM2 vs wild type LM2
Procedure: Cas9 nuclease-mediated gene editing (Sander and Joung, 2014) was performed using a CRISPR RNA guide sequence ([…], PAM: AGG) targeting exon 3 in the human PAICS gene (accession number: NM_006452).
Stable cell clones were isolated and gene disruption confirmed by DNA sequencing and the absence of PAICS cellular protein expression confirmed by Western blotting.
A small set of compounds were tested against wild type LM2 and CRISPR edited LM2 to see to what extent the cellular potency was driven by PAICS mediated effects.

[2] = test system: LM2 and MDA-MB-231 breast cancer cell lines; experiment: PAICS 2D cell proliferation assay; type: cell-based; conditions: Homo sapiens; 72 hours incubation; cell line (LM2 or MDA-MB-231) not given
In short: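 Cells seeded at 1000/well, dosed after 24 h with a 10-point ½-log series (top 100 μM, 1% DMSO final), then incubated 72 h at 37 °C. Dead cells measured by CellTox Green DNA staining and viability by CellTiter-Glo ATP luminescence, both expressed as % of controls (mean±SEM, duplicate curves).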

SMILES | IC50 (WT full length PAICS) [nM] | Potency shift: CRISPR Cell EC50/WT Cell EC50 [1] | EC50 [2] [nM]
CN1CCN(c2ccc(-c3ccc(Cl)c(NC(=O)c4coc(N)n4)c3)cn2)CC1 [Example 37, 2-Amino-N-{2-chloro-5-[6-(4-methylpiperazin-1-yl)pyridin-3-yl]phenyl}-1,3-oxazole-4-carboxamide] | > 100 | >10 | 100 to 250
CCNCCCn1cc(-c2ccc(Cl)c(NC(=O)c3coc(N)n3)c2)cn1 [Example 47, 2-Amino-N-(2-chloro-5-(1-(3-(ethylamino)propyl)-1H-pyrazol-4-yl)phenyl)oxazole-4-carboxamide] | 10 to 25 | >80 | < 100
CN(C)CCCOc1ncc(-c2ccc(Cl)c(NC(=O)c3coc(N)n3)c2)s1 [Example 86, 2-Amino-N-(2-chloro-5-{2-[3-(dimethylamino)propoxy]-1,3-thiazol-5-yl}phenyl)-1,3-oxazole-4-carboxamide] | < 10 | >30 | < 100
